These results are taken from patent US6605145B1, “Alkylformamide surfactants” (Air Products and Chemicals, Inc., priority 1999, dated 2003).

Assay type in all cases: physicochemical
The nature of data set [1]: Dynamic surface tension of aqueous solutions, maximum bubble pressure method. An excerpt:
where R is a C5 to C11 alkyl group, provided that the organic compound is not an azole derivative fungicide. […] The maximum-bubble-pressure method of measuring surface tension is described in Langmuir 1986, 2, 428-432, which is incorporated by reference.
In the following Examples dynamic surface tension data were obtained for aqueous solutions of various compounds using the maximum bubble pressure method at bubble rates from 0.1 bubbles/second (b/s) to 20 b/s. […] In practical terms, high bubble rates correspond to high printing speeds in lithographic printing, high spray or roller velocities in coating applications, and rapid application rates for agricultural products.

Data set [2] is described as follows: Solubility limit in water from plot of ln(conc.) vs surface tension at 0.1 b/s. An excerpt:
A plot of In(conc.) vs surface tension observed at 0.1 b/s was used to determine that the solubility limit of this material is 0.1 wt %.

The nature of data set [3]: Foam test based upon ASTM D 1173-53. On the procedure:
The foaming properties of 0.1 wt % solutions of the N-octylpyrrolidone and the alkylformamide surfactants of this invention were examined using a procedure based upon ASTM D 1173-53. In this test, a 0.1 wt % solution of the surfactant is added from an elevated foam pipette to a foam receiver containing the same solution. The foam height is measured at the completion of the addition (“Initial Foam Height”) and the time required for the foam to dissipate at the air-liquid interface (“Time to 0 Foam”) is recorded. This test provides a comparison between the foaming characteristics of various surfactant solutions. In general, in coatings, inks, and agricultural formulations, foam is undesirable because it complicates handling and can lead to coating and print defects, and to inefficient application of agricultural materials.

On to `CCCCCCCCNC=O` [n-OF, n-octylformamide], for which the “Dynamic Surface Tension” value turned out to be 42.8 dyne/cm in data set [1] (0.03 wt % in water, 0.1 b/s); 46.1 dyne/cm in data set [1] (0.03 wt % in water, 1 b/s); 52.2 dyne/cm in data set [1] (0.03 wt % in water, 6 b/s); 58.5 dyne/cm in data set [1] (0.03 wt % in water, 15 b/s); 60.4 dyne/cm in data set [1] (0.03 wt % in water, 20 b/s); 35.6 dyne/cm in data set [1] (0.05 wt % in water, 0.1 b/s). Further, the “Dynamic Surface Tension” value worked out at 37.7 dyne/cm in data set [1] (0.05 wt % in water, 1 b/s); 42.5 dyne/cm in data set [1] (0.05 wt % in water, 6 b/s); 48.6 dyne/cm in data set [1] (0.05 wt % in water, 15 b/s); 50.5 dyne/cm in data set [1] (0.05 wt % in water, 20 b/s); 30.9 dyne/cm in data set [1] (0.07 wt % in water, 0.1 b/s); 32.5 dyne/cm in data set [1] (0.07 wt % in water, 1 b/s). Besides, the “Dynamic Surface Tension” value in data set [1] (0.07 wt % in water, 6 b/s) is listed as 36.3 dyne/cm; in data set [1] (0.07 wt % in water, 15 b/s), 41.5 dyne/cm; in data set [1] (0.07 wt % in water, 20 b/s), 43.7 dyne/cm; in data set [1] (0.1 wt % in water, 1 b/s) it was 26.6 dyne/cm; in data set [1] (0.1 wt % in water, 6 b/s) it was 28.7 dyne/cm; in data set [1] (0.1 wt % in water, 15 b/s), 34.4 dyne/cm. The same molecule registered a solubility limit in data set [2] of 0.1 wt %.
On to `CCCCCCCCCCNC=O` [n-DF, n-decylformamide], for which the “Dynamic Surface Tension” value in data set [1] (0.005 wt % in water, 0.1 b/s) is 53.4 dyne/cm; in data set [1] (0.005 wt % in water, 1 b/s), 67.1 dyne/cm; in data set [1] (0.005 wt % in water, 6 b/s) it was 70.6 dyne/cm; in data set [1] (0.005 wt % in water, 15 b/s), 72.5 dyne/cm; in data set [1] (0.005 wt % in water, 20 b/s), 73.1 dyne/cm; in data set [1] (0.007 wt % in water, 0.1 b/s), 36.3 dyne/cm. Also, the “Dynamic Surface Tension” value in data set [1] (0.007 wt % in water, 1 b/s) amounted to 59.2 dyne/cm; in data set [1] (0.007 wt % in water, 6 b/s), 70.3 dyne/cm; in data set [1] (0.007 wt % in water, 15 b/s) it was 72.3 dyne/cm; in data set [1] (0.007 wt % in water, 20 b/s) it was 72.9 dyne/cm; in data set [1] (0.01 wt % in water, 0.1 b/s), 32.4 dyne/cm; in data set [1] (0.01 wt % in water, 1 b/s) it was 55.4 dyne/cm. The “Dynamic Surface Tension” value came out at 69.1 dyne/cm in data set [1] (0.01 wt % in water, 6 b/s); 72.5 dyne/cm in data set [1] (0.01 wt % in water, 15 b/s); 72.8 dyne/cm in data set [1] (0.01 wt % in water, 20 b/s). Further, the solubility limit in data set [2] came to 0.01 wt %.
Consider `CCCCC(CC)CNC=O` (stereo not shown) [drawing 14, 2-ethylhexylformamide], for which, in data set [3] (0.1 wt % solution), the “Initial Foam Height” value is 0.5 cm and the “Time to 0 Foam” value stood at 4 s.
The like results for `CCCCCCCCNC=O` [drawing 13, n-octylformamide] were, in that order, 0.9 cm and 5 s.
Take `CCCCCCCCCCNC=O` [drawing 16, n-decylformamide]: in data set [3] (0.1 wt % solution), the “Initial Foam Height” value turned out to be 2.4 cm and the “Time to 0 Foam” value came out at 12 s.
In the case of `CCCCC(CC)CNC=O` (stereo not shown) [2-EHF, 2-ethylhexylformamide], the “Dynamic Surface Tension” value in data set [1] (0.03 wt % in water, 0.1 b/s) stood at 51.1 dyne/cm; in data set [1] (0.03 wt % in water, 1 b/s) it was 53.0 dyne/cm; in data set [1] (0.03 wt % in water, 6 b/s), 57.0 dyne/cm; in data set [1] (0.03 wt % in water, 15 b/s) it was 60.1 dyne/cm; in data set [1] (0.03 wt % in water, 20 b/s), 60.3 dyne/cm; in data set [1] (0.05 wt % in water, 0.1 b/s), 45.9 dyne/cm. The “Dynamic Surface Tension” value was 47.2 dyne/cm in data set [1] (0.05 wt % in water, 1 b/s); 49.9 dyne/cm in data set [1] (0.05 wt % in water, 6 b/s); 52.6 dyne/cm in data set [1] (0.05 wt % in water, 15 b/s); 53.3 dyne/cm in data set [1] (0.05 wt % in water, 20 b/s); 42.8 dyne/cm in data set [1] (0.07 wt % in water, 0.1 b/s); 43.8 dyne/cm in data set [1] (0.07 wt % in water, 1 b/s). Also, the “Dynamic Surface Tension” value in data set [1] (0.07 wt % in water, 6 b/s) amounted to 46.0 dyne/cm; in data set [1] (0.07 wt % in water, 15 b/s) it was 48.3 dyne/cm; in data set [1] (0.07 wt % in water, 20 b/s), 49.1 dyne/cm; in data set [1] (0.1 wt % in water, 0.1 b/s) it was 39.1 dyne/cm; in data set [1] (0.1 wt % in water, 1 b/s), 39.9 dyne/cm; in data set [1] (0.1 wt % in water, 6 b/s) it was 41.6 dyne/cm. The “Dynamic Surface Tension” value was 43.5 dyne/cm in data set [1] (0.1 wt % in water, 15 b/s); 44.2 dyne/cm in data set [1] (0.1 wt % in water, 20 b/s); 32.1 dyne/cm in data set [1] (0.2 wt % in water, 0.1 b/s); 32.4 dyne/cm in data set [1] (0.2 wt % in water, 1 b/s); 33.3 dyne/cm in data set [1] (0.2 wt % in water, 6 b/s); 34.9 dyne/cm in data set [1] (0.2 wt % in water, 15 b/s). Further, the “Dynamic Surface Tension” value in data set [1] (0.2 wt % in water, 20 b/s) was 35.5 dyne/cm. Further, in data set [2], the solubility limit is on record as 0.2 wt %.
Regarding `CCCCCCCCN1CCCC1=O` [N-n-Octylpyrrolidone, reference compound], the “Dynamic Surface Tension” value in data set [1] (0.003 wt % in water, 0.1 b/s) stood at 65.1 dyne/cm; in data set [1] (0.003 wt % in water, 1 b/s), 68.6 dyne/cm; in data set [1] (0.003 wt % in water, 6 b/s), 70.8 dyne/cm; in data set [1] (0.003 wt % in water, 15 b/s) it was 71.4 dyne/cm; in data set [1] (0.003 wt % in water, 20 b/s), 71.1 dyne/cm; in data set [1] (0.03 wt % in water, 0.1 b/s) it was 46.5 dyne/cm. In addition, the “Dynamic Surface Tension” value in data set [1] (0.03 wt % in water, 1 b/s) is 49.3 dyne/cm; in data set [1] (0.03 wt % in water, 6 b/s), 54.4 dyne/cm; in data set [1] (0.03 wt % in water, 15 b/s) it was 58.7 dyne/cm; in data set [1] (0.03 wt % in water, 20 b/s), 59.6 dyne/cm; in data set [1] (0.07 wt % in water, 0.1 b/s), 35.2 dyne/cm; in data set [1] (0.07 wt % in water, 1 b/s), 36.6 dyne/cm. The “Dynamic Surface Tension” value in data set [1] (0.07 wt % in water, 6 b/s) is listed as 39.6 dyne/cm; in data set [1] (0.07 wt % in water, 15 b/s), 43.0 dyne/cm; in data set [1] (0.07 wt % in water, 20 b/s), 43.9 dyne/cm; in data set [1] (0.1 wt % in water, 0.1 b/s), 29.9 dyne/cm; in data set [1] (0.1 wt % in water, 1 b/s), 31.0 dyne/cm; in data set [1] (0.1 wt % in water, 1 b/s, listed as n-octylpyrrolidone), “below 30 dyne/cm”. Also, the “Dynamic Surface Tension” value in data set [1] (0.1 wt % in water, 6 b/s) is on record as 33.4 dyne/cm; in data set [1] (0.1 wt % in water, 15 b/s) it was 36.5 dyne/cm; in data set [1] (0.1 wt % in water, 20 b/s), 37.2 dyne/cm; in data set [1] (0.1 wt % in water, 20 b/s, listed as n-octylpyrrolidone) it was “below 40 dyne/cm”; in data set [1] (0.21 wt % in water, 0.1 b/s) it was 27.6 dyne/cm; in data set [1] (0.21 wt % in water, 1 b/s) it was 27.8 dyne/cm. Moreover, the “Dynamic Surface Tension” value came out at 28.4 dyne/cm in data set [1] (0.21 wt % in water, 6 b/s); 30.0 dyne/cm in data set [1] (0.21 wt % in water, 15 b/s); 30.6 dyne/cm in data set [1] (0.21 wt % in water, 20 b/s). Besides, in data set [3] (0.1 wt % solution), the “Initial Foam Height” value is listed as 4.0 cm. For the same molecule, the “cm Foam after 5 min” value in data set [3] (0.1 wt % solution) stood at 1.0 cm. For the same molecule, in data set [3] (aqueous solutions), the “foaming of aqueous solutions (in words)” value was “quite foamy”.
